Assay results from US9511010B2, “Compounds useful in the treatment and/or care of the skin, hair and/or mucous membranes and their cosmetic or pharmaceutical compositions” (Lubrizol Advanced Materials, Inc., priority 2012, dated 2016).

Key:
HDFa cells = experiment: Photoprotective effectiveness in human fibroblasts (Neutral Red viability after solar simulation irradiation); type: cell-based; settings: for Effectiveness Photoprotection (%): irradiated; for Cell viability: preincubated 1 hour, irradiated ~60 J/cm^2, irradiated control 50.72%
Experimental: HDFa cells were put in culture medium for 24 hours in 96-well plates to form monolayers. Afterwards the cells were preincubated in darkness with 0.5 mg/mL, 0.1 mg/mL, 0.01 mg/mL of Ac-L-Tyr-L-Glu-L-Lys-L-Leu-L-Gln-L-Val-NH2 (Ac-SEQ ID NO:22-NH2) in PBS or PBS alone (control) for 1 hour at 37° C. and humidified air with 5% CO2.
The cells were irradiated with a solar simulation lamp at ˜60 J/cm^2 for 210 min at room temperature. A control plate was kept in the dark for the same time at room temperature. Once irradiation was completed the culture medium was changed for a new one and the plates were incubated for another 24 hours.
The cell viability was determined with the Neutral Red dye, measuring the absorbency at 540 nm in a spectrophotometer.
The photoprotective effectiveness was determined by comparing the viability obtained in cells treated with Ac-L-Tyr-L-Glu-L-Lys-L-Leu-L-Gln-L-Val-NH2 (Ac-SEQ ID NO:22-NH2) with the irradiated and non-irradiated control cell response.

[1] = tested on: Adult human epidermal keratinocytes (HEKa); experiment: Profile of the gene expression of human epidermal keratinocytes (microarray); type: cell-based; settings: 0.1 mg/ml, 24 hours, vs untreated cells
Experimental: Adult human epidermal keratinocytes (HEKa) were seeded (15×10^4 cells/vial cells/vial T25 cm^2), and were incubated in complete Epilife medium for 7 days at 37° C. in an atmosphere with 5% CO2. After the incubation, the cells were treated for 24 hours at 37° C. in an atmosphere with 5% CO2 with 0.1 mg/ml of the compound Ac-L-Tyr-L-Glu-L-Lys-L-Leu-L-Gln-L-Val-NH2 (Ac-SEQ ID NO:22-NH2) in complete Epilife medium or in complete Epilife medium as a negative control. The incubations and the treatments were carried out in duplicate for each condition.
24 hours after the treatments, the cells were homogenized and the RNA was extracted and purified from each replica and each condition by means of the RNeasyPlus Mini kit by Qiagen. Briefly, RNases were inactivated from cells lysates and samples were passed through special RNA binding columns to eliminate contaminants and impurities and after several microcentrifugation washes, the purified RNA was eluted with 50 μl of ultrapure water. The purity, integrity and concentration of the RNA obtained was evaluated by means of spectrophotometry (Nanodrop) and with a bioanalyzer (Agilent Bioanalyzer).
The marking of the purified RNA was carried out as was the hybridization of the samples in a human gene expression microarray (ASurePrint G3, Agilent). The normalized values obtained with the treatment were compared with the normalized values obtained with the negative control to obtain genes with differential expression. Next, a parametric analysis of the data was carried out by means of the Bioconductor software. Then, the values obtained were evaluated by means of GSEA (Gene Set Analysis Enrichment) to group the genes with differential expression in terms of Gene Ontology. Biological Routes and most significant pathways with a False Discovery Rate (FDR) lower than 25% were selected.

[2] = tested on: HEKa primary keratinocytes; experiment: Host cell reactivation (HCR) assay, activation of DNA repair in primary keratinocytes; type: cell-based, human; settings: 24 hours, basal = 100
Experimental: The host cell reactivation (HCR) assay was used in HEKa primary keratinocytes to evaluate the capacity of the peptides of the invention to repair the damage to the DNA in a biologically functional way. 40,000 cells per well were seeded and they were co-transfected with a control plasmid which constitutively expresses the Firefly luciferase gene (pGL3), previously damaged by UVC, and with an undamaged plasmid which constitutively expresses the Renilla luciferase gene (vector pRluc-N1(h)).
Subsequently the cells were incubated with the compounds of the invention at 0.025 mg/mL and 0.5 mg/mL in EpiLife medium for 24 hours, after which the luminescence due to the activity of the Firefly and Renilla luciferases was measured using the Dual-Go Luciferase Assay System kit following the manufacturer's instructions. The carrier in which the compounds of the invention (EpiLife medium) were dissolved was used as a negative control. The activation percentage of the DNA repair for each sample was calculated standardizing the luminescence values of the Firefly luciferase with regard to the Renilla luciferase, subsequently standardizing with regard to the values of the negative control.
Each experiment was carried out three times in 3 independent experiments.

Ac-YEKLQV-NH2 [Ac-SEQ ID NO: 22-NH2, Ac-L-Tyr-L-Glu-L-Lys-L-Leu-L-Gln-L-Val-NH2]
Effectiveness Photoprotection (%) (HDFa cells; 0.01 mg/mL): 16.24% | Cell viability (HDFa cells; 0.01 mg/mL): 58.96% | Effectiveness Photoprotection (%) (HDFa cells; 0.1 mg/mL): 20.06% | Cell viability (HDFa cells; 0.1 mg/mL): 60.90% | Effectiveness Photoprotection (%) (HDFa cells; 0.5 mg/mL): 35.10% | Cell viability (HDFa cells; 0.5 mg/mL): 68.52% | % Expression induction, ACD ([1]; gene ACD, LONGEVITY, TELOMERE MAINTENANCE AND PROTECTION): 10.76% | % Expression induction, AIF1 ([1]; gene AIF1, INFLAMMATION, ANTI-INFLAMMATORY RESPONSE): 19.02% | % Expression induction, ANXA1 ([1]; gene ANXA1, INFLAMMATION, ANTI-INFLAMMATORY RESPONSE): 8.22% | % Expression induction, ANXA4 ([1]; gene ANXA4, INFLAMMATION, ANTI-INFLAMMATORY RESPONSE): 17.69% | % Expression induction, ANXA5 ([1]; gene ANXA5, INFLAMMATION, ANTI-INFLAMMATORY RESPONSE): 22.32% | % Expression induction, ATM ([1]; gene ATM, CELL CYCLE): 48.53% | % Expression induction, ATRX ([1]; gene ATRX, HELICASE ACTIVITY and ATPase ACTIVITY): 48.65% | % Expression induction, BAG4 ([1]; gene BAG4, APOPTOSIS INHIBITION): 32.42% | % Expression induction, BAX ([1]; gene BAX, APOPTOSIS INHIBITION): −60.73% | % Expression induction, BCL2 ([1]; gene BCL2, APOPTOSIS INHIBITION): 59.91% | % Expression induction, BCL2L2 ([1]; gene BCL2L2, APOPTOSIS INHIBITION): 32.49% | % Expression induction, BIRC3 ([1]; gene BIRC3, APOPTOSIS INHIBITION): 16.84% | % Expression induction, BIRC6 ([1]; gene BIRC6, APOPTOSIS INHIBITION): 73.14% | % Expression induction, BNIP2 ([1]; gene BNIP2, APOPTOSIS INHIBITION): 30.68% | % Expression induction, BNIP3L ([1]; gene BNIP3L, APOPTOSIS INHIBITION): 31.39% | % Expression induction, CASP3 ([1]; gene CASP3, APOPTOSIS ACTIVATION): 31.18% | % Expression induction, CDK7 ([1]; gene CDK7, DNA repair, Protein DNA Complex Assembly): 14.31% | % Expression induction, CHD1 ([1]; gene CHD1, HELICASE ACTIVITY and ATPase ACTIVITY): 40.46% | % Expression induction, CHD2 ([1]; gene CHD2, HELICASE ACTIVITY and ATPase ACTIVITY): 42.59% | % Expression induction, DDX1 ([1]; gene DDX1, HELICASE ACTIVITY and ATPase ACTIVITY): 26.92% | % Expression induction, DDX10 ([1]; gene DDX10, HELICASE ACTIVITY and ATPase ACTIVITY): 27.49% | % Expression induction, DDX25 ([1]; gene DDX25, HELICASE ACTIVITY and ATPase ACTIVITY): 16.24% | % Expression induction, ERCC6 ([1]; gene ERCC6, HELICASE ACTIVITY and ATPase ACTIVITY): 74.50% | % Expression induction, ERCC8 ([1]; gene ERCC8, DNA repair, Protein DNA Complex Assembly): 8.90% | % Expression induction, FAS ([1]; gene FAS, APOPTOSIS INHIBITION): −15.36% | % Expression induction, IL6 ([1]; gene IL6, INFLAMMATION, ANTI-INFLAMMATORY RESPONSE): −26.30% | % Expression induction, MAPK8 ([1]; gene MAPK8, APOPTOSIS INHIBITION): −33.72% | % Expression induction, MCL1 ([1]; gene MCL1, APOPTOSIS ACTIVATION): −17.76% | % Expression induction, MED4 ([1]; gene MED4, DNA repair, Protein DNA Complex Assembly): 28.80% | % Expression induction, MED13 ([1]; gene MED13, DNA repair, Protein DNA Complex Assembly): 56.75% | % Expression induction, MED14 ([1]; gene MED14, DNA repair, Protein DNA Complex Assembly): 32.54% | % Expression induction, MED17 ([1]; gene MED17, DNA repair, Protein DNA Complex Assembly): 46.25% | % Expression induction, MNAT1 ([1]; gene MNAT1, DNA repair, Protein DNA Complex Assembly): 17.84% | % Expression induction, MSH4 ([1]; gene MSH4, CELL CYCLE): 33.28% | % Expression induction, MYC ([1]; gene MYC, APOPTOSIS ACTIVATION): 41.70% | % Expression induction, NLRP3 ([1]; gene NLRP3, INFLAMMATION, ANTI-INFLAMMATORY RESPONSE): 36.49% | % Expression induction, NLRP12 ([1]; gene NLRP12, INFLAMMATION, ANTI-INFLAMMATORY RESPONSE): 39.96% | % Expression induction, PAPD7 ([1]; gene PAPD7, DNA POLYMERASE ACTIVITY): 65.27% | % Expression induction, POLA1 ([1]; gene POLA1, DNA POLYMERASE ACTIVITY): 29.28% | % Expression induction, POLD4 ([1]; gene POLD4, DNA POLYMERASE ACTIVITY): 31.74% | % Expression induction, POLH ([1]; gene POLH, DNA POLYMERASE ACTIVITY): 28.96% | % Expression induction, PTEN ([1]; gene PTEN, other genes involved in LONGEVITY): 26.04% | % Expression induction, RAD17 ([1]; gene RAD17, CELL CYCLE): 0.21% | % Expression induction, RAD21 ([1]; gene RAD21, CELL CYCLE): 18.22% | % Expression induction, RAD50 ([1]; gene RAD50, CELL CYCLE): 37.66% | % Expression induction, RAD54B ([1]; gene RAD54B, CELL CYCLE): 26.20% | % Expression induction, SETX ([1]; gene SETX, HELICASE ACTIVITY and ATPase ACTIVITY): 65.33% | % Expression induction, SH3GLB1 ([1]; gene SH3GLB1, APOPTOSIS ACTIVATION): 52.57% | % Expression induction, SMARCA1 ([1]; gene SMARCA1, HELICASE ACTIVITY and ATPase ACTIVITY): 29.62% | % Expression induction, SOCS2 ([1]; gene SOCS2, INFLAMMATION, ANTI-INFLAMMATORY RESPONSE): 56.13% | % Expression induction, TAF1 ([1]; gene TAF1, DNA repair, Protein DNA Complex Assembly): 65.00% | % Expression induction, TAF2 ([1]; gene TAF2, DNA repair, Protein DNA Complex Assembly): 25.12% | % Expression induction, TAF5 ([1]; gene TAF5, DNA repair, Protein DNA Complex Assembly): 8.18% | % Expression induction, TAX1BP1 ([1]; gene TAX1BP1, APOPTOSIS INHIBITION): 19.23% | % Expression induction, TEP1 ([1]; gene TEP1, LONGEVITY, TELOMERE MAINTENANCE AND PROTECTION): 38.49% | % Expression induction, TERF1 ([1]; gene TERF1, LONGEVITY, TELOMERE MAINTENANCE AND PROTECTION): 7.38% | % Expression induction, TERF2IP ([1]; gene TERF2IP, LONGEVITY, TELOMERE MAINTENANCE AND PROTECTION): 21.63% | % Expression induction, TINF2 ([1]; gene TINF2, LONGEVITY, TELOMERE MAINTENANCE AND PROTECTION): 13.37% | % Expression induction, TP53BP2 ([1]; gene TP53BP2, APOPTOSIS ACTIVATION): 22.34% | % Expression induction, WRN ([1]; gene WRN, HELICASE ACTIVITY and ATPase ACTIVITY): 35.25% | % Expression induction, XIAP ([1]; gene XIAP, APOPTOSIS INHIBITION): 51.98% | % Expression induction, XRCC2 ([1]; gene XRCC2, CELL CYCLE): 24.95% | Activation Average (%) of DNA repair, HCR assay ([2]; 0.025 mg/mL): 203% | Activation Average (%) of DNA repair, HCR assay ([2]; 0.5 mg/mL): 272%
